# Experimental data as given in patent US20080292584A1 (priority 2005, published 2008).
# Values joined by “and” are separate entries in the source; they are usually repeats but may differ in a detail not shown here. Equal values may be shown once. Read-outs that look alike come from different tables or passages of the source.
# Tests used:
# CYP2C9 [1] = target: T1, CYP2C9 (Homo sapiens, UniProt P11712); assay: Inhibition of CYP2C9 activity in pooled human liver microsomes (tolbutamide 150 μM to 4′-methylhydroxytolbutamide); assay type: in vitro ADME; parameters: host or cells: cryopreserved primary human hepatocytes from three donors
# T1 sequence (P11712 whole entry): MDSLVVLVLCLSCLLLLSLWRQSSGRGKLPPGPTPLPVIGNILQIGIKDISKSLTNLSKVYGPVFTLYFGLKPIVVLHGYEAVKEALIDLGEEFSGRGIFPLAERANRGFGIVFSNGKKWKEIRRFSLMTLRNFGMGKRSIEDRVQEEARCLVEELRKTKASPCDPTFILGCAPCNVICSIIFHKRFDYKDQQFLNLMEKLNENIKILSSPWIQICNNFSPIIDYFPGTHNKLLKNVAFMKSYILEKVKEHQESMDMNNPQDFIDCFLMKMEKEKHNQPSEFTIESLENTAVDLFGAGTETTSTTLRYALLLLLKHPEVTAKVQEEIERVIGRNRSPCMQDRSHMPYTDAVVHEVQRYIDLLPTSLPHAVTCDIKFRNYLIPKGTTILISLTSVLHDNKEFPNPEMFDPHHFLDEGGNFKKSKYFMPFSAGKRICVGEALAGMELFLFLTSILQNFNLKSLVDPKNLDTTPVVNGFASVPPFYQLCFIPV
# Method: All other incubations were for 30 minutes.
# Four replicates were performed.
# Two replicates were performed.
# [2] = Metaxalone turnover in pooled human liver microsomes without inhibitor (LC-MS/MS); settings: for % Turnover Mean / Mean Conc. / % Turnover / Conc. / Mean metaxalone disappearance: 1 mg/mL microsomal protein; for % Turnover Mean / Mean Conc. / % Turnover / Conc.: 60 min, no inhibitor; for % Turnover / Conc.: single replicates
# Method: Stocks were diluted daily in the appropriate buffers such that the final organic solvent concentration was <1%.
# The reactions, in 0.1 M phosphate buffer, pH 7.4, were initiated by addition of 1 mM NADPH. Negative controls (no NADPH and heat-treated microsomes) were included to account for any non-enzymatic or non-NADPH dependent reactions. The reactions were terminated at the appropriate time points by addition of 1 volume (relative to total reaction volume) of methanol. The samples were centrifuged at approximately 3000 rpm and the clear supernatant was transferred to a clean tube and analyzed by the LC-MS/MS method described above.
# CYP1A2 = target: T2, CYP1A2 (Homo sapiens, UniProt P05177); settings: both, pH 7.4; for Mean Conc.: 60 min; for % Turnover Mean: microsomes, 1 h
# T2 sequence (P05177 1-516): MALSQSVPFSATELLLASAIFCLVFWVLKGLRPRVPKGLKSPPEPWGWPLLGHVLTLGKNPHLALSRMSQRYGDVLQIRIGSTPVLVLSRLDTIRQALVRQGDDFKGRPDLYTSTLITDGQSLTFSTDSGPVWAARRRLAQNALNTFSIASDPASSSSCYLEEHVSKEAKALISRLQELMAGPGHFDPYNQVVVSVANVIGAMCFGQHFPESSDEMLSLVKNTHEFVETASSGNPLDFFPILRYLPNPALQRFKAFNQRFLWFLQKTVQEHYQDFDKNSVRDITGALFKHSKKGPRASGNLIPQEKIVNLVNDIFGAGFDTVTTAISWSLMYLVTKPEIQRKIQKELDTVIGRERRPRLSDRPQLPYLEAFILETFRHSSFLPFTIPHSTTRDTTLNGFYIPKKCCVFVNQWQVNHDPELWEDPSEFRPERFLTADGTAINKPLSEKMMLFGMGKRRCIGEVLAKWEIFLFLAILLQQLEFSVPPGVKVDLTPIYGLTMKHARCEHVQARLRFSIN
# Method: (§1) Human liver microsomes pooled from 15 individuals (male and female) (Pool HMMC-PL020; CellzDirect, Inc., In Vitro Products and Services Division) were used in some experiments of this study.
# (§2) % Turnover=100−{[TA(final)]/[mean of TA(0 min)]}×100,
# (§3) % Inhibition of Turnover=100{1−([TA(0 min)]−[TA(final-inhibitor)])/([TA(0 min)]−[TA(final-no inhibitor)])}.
# (§4) The inhibitors or vehicle control were incubated with the pooled human liver microsomes (1 mg/mL) and NADPH (1 mM) in 0.1 M phosphate buffer, pH 7.4. […] Incubations were conducted in triplicate and terminated by addition of organic solvent. Samples were extracted and analyzed by LC-MS/MS as described above.
# CYP3A4 = CYP3A4 (Homo sapiens, UniProt P08684); assay: Metabolism of metaxalone by expressed recombinant human CYP3A4 (Example 1); settings: 30 min;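 also: microsomes holding 10 pmol P450, reactions started by an NADPH regenerating system after 5 min preincubation, 0.5 mL final volume, background signal taken from matrix controls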
# Sequence of CYP3A4 (P08684 2-503 limits assumed): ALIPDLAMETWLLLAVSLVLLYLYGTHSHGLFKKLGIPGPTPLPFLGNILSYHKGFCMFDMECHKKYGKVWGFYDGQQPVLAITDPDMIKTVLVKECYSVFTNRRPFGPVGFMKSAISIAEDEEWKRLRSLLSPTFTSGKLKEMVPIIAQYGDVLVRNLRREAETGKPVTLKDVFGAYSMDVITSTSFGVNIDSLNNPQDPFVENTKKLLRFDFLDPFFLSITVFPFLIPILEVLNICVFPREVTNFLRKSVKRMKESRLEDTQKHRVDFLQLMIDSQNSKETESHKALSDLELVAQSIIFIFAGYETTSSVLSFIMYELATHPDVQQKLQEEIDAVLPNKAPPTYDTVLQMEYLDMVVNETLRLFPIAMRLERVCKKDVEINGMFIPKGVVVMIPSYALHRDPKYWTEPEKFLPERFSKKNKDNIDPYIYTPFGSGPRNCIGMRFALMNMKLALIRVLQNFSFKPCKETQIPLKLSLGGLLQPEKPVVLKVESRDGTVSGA
# Method: (§5) Commercially available microsomes from baculovirus-infected insect cells containing singly-expressed recombinant wild-type (*1 allele) human CYP enzymes and cDNA-expressed human cytochrome p450 oxidoreductase [BD SUPERSOMES Enzymes; BD Biosciences Discovery Labware (Woburn, Mass.)] were used.
# (§6) After a 5-minute pre-incubation, an NADPH regenerating system (NRS) was added to the incubation mixtures to initiate reactions, with a final incubation volume of 0.5 mL. Incubations were continued for 30 minutes, and then terminated, except for those for CYP2C19, which were incubated for 36 minutes prior to termination.
# (§7) Matrix controls were performed to determine the background signal from the matrix components (microsomes (10 pmol p450), 01N Tris buffer, NRS, and 1% methanol). […] After a 5-minute pre-incubation, 2% sodium bicarbonate solution was added to the incubation mixtures. Incubation was for 30 minutes at a final volume of 0.5 mL. Matrix and metabolic negative controls were terminated by adding an equal volume of methanol. […] Analysis of samples was subsequent to storage at −70° C.
# CYP2E1 = CYP2E1 (Homo sapiens, UniProt P05181); settings: both, microsomes, 1 h, 0.75 μM, pH 7.4
# Sequence of CYP2E1 (P05181 whole entry): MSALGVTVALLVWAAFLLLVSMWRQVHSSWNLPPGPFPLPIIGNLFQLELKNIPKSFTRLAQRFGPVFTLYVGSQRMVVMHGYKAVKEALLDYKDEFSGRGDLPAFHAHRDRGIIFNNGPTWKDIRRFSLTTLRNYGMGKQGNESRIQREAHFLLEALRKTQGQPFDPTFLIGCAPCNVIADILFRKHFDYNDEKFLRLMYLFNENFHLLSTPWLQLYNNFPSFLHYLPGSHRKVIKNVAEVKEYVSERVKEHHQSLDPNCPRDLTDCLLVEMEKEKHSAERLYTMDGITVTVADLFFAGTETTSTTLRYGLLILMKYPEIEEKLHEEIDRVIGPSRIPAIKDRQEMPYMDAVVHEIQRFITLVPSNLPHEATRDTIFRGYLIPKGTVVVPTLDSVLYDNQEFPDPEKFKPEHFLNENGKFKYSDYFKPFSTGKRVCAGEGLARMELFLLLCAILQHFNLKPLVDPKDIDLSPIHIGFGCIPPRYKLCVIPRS
# Method: as §1, §2, §3, §4
# CYP2C19 = CYP2C19 (Homo sapiens, UniProt P33261); assay: Metabolism of metaxalone by expressed recombinant human CYP2C19 (Example 1); settings: for Metaxalone Present Adjusted Individual / Metaxalone Present Adjusted Mean ± SD / Metaxalone Present Raw / Percent of Metabolic Negative Control Individual / Percent of Metabolic Negative Control Mean ± SD: 36 min;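 as to all read-outs here: microsomes with expressed CYP2C19 (10 pmol P450) in Tris buffer with 1% methanol, reaction started by an NADPH regenerating system after 5 min preincubation, 0.5 mL volume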
# Sequence of CYP2C19 (P33261 whole entry): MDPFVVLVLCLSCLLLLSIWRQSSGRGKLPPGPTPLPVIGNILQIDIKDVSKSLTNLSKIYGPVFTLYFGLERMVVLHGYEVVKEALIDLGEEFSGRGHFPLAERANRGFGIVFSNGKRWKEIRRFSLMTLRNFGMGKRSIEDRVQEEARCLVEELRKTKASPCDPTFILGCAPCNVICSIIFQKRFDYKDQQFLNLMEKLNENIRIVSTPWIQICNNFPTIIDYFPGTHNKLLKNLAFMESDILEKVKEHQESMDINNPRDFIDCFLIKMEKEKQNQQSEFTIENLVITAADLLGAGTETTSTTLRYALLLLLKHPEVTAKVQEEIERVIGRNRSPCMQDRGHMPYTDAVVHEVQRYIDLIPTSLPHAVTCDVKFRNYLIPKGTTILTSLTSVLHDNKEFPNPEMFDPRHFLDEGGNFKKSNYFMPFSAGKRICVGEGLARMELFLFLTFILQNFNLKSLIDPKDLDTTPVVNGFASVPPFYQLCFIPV
# Method: as §5, §6, §7
# CYP2C9 [3] = target: T1, CYP2C9; assay: Metabolism of metaxalone by expressed recombinant human CYP2C9 (Example 1); settings: 30 min
# Method: as §5, §6, §7
smiles,measurement,setting,value
"Cc1cc(C)cc(OCC2CNC(=O)O2)c1 (stereo not shown) [metaxalone, 5-[(3,5-dimethylphenoxy)methyl]-2-oxazolidinone]",inhibition of CYP activity at a statistically significant level,CYP2C9 [1]; 0.3-100 μM metaxalone,no tested concentration of metaxalone inhibited activity
same,Inhibitor,"CYP2C9 [1]; CYP isozyme 2C9, summary of studies",0
same,Percent of VC,CYP2C9 [1]; metaxalone 0.3 μM,81.4%
same,Specific Activity Individual,CYP2C9 [1]; metaxalone 0.3 μM,36.3 pmol/min/mg protein and 35.8 pmol/min/mg protein and 36.2 pmol/min/mg protein
same,Specific Activity Mean ± SD,CYP2C9 [1]; metaxalone 0.3 μM,36.1 ± 0.283 pmol/min/mg protein
same,Percent of VC,CYP2C9 [1]; metaxalone 1 μM,81.6%
same,Specific Activity Individual,CYP2C9 [1]; metaxalone 1 μM,40.3 pmol/min/mg protein and 37.5 pmol/min/mg protein and 30.6 pmol/min/mg protein
same,Specific Activity Mean ± SD,CYP2C9 [1]; metaxalone 1 μM,36.2 ± 4.98 pmol/min/mg protein
same,Percent of VC,CYP2C9 [1]; metaxalone 3 μM,81.2%
same,Specific Activity Individual,CYP2C9 [1]; metaxalone 3 μM,34.8 pmol/min/mg protein and 34.0 pmol/min/mg protein and 39.1 pmol/min/mg protein
same,Specific Activity Mean ± SD,CYP2C9 [1]; metaxalone 3 μM,36.0 ± 2.75 pmol/min/mg protein
same,Percent of VC,CYP2C9 [1]; metaxalone 30 μM,91.0%
same,Specific Activity Individual,CYP2C9 [1]; metaxalone 30 μM,39.9 pmol/min/mg protein and 38.3 pmol/min/mg protein and 42.8 pmol/min/mg protein
same,Specific Activity Mean ± SD,CYP2C9 [1]; metaxalone 30 μM,40.3 ± 2.24 pmol/min/mg protein
same,Percent of VC,CYP2C9 [1]; metaxalone 100 μM,87.4%
same,Specific Activity Individual,CYP2C9 [1]; metaxalone 100 μM,43.4 pmol/min/mg protein and 36.6 pmol/min/mg protein and 36.3 pmol/min/mg protein
same,Specific Activity Mean ± SD,CYP2C9 [1]; metaxalone 100 μM,38.8 ± 4.00 pmol/min/mg protein
same,% Turnover Mean,[2]; 0.75 μM metaxalone,29.8%
same,Mean Conc.,[2]; 0.75 μM metaxalone,0.542 µM
same,% Turnover,[2]; 0.75 μM metaxalone,30.5% and 27.3% and 31.5%
same,Conc.,[2]; 0.75 μM metaxalone,0.536 µM and 0.561 µM and 0.529 µM
same,Mean metaxalone disappearance,"[2]; 0.75 μM metaxalone, 60 minutes",29.8±1.3%
same,% Turnover Mean,[2]; 7.5 μM metaxalone,24.6%
same,Mean Conc.,[2]; 7.5 μM metaxalone,6.42 µM
same,% Turnover,[2]; 7.5 μM metaxalone,24.8% and 23.9% and 25.1%
same,Conc.,[2]; 7.5 μM metaxalone,6.40 µM and 6.48 µM and 6.38 µM
same,Mean metaxalone disappearance,"[2]; 7.5 μM metaxalone, 60 minutes",24.6±0.3%
same,maximum turnover,"[2]; 60 minutes, 1 mg/mL protein, NADPH-dependent",38.0%
same,Mean Conc.,CYP1A2; 0.75 μM,0.797 µM
same,Mean Conc.,CYP1A2; 7.5 μM,8.11 µM
same,% Turnover Mean,CYP1A2; 0.75 μM,−3.29%
same,% Turnover Mean,CYP1A2; 7.5 μM,4.77%
same,Metaxalone Present Adjusted Individual,CYP3A4; metaxalone 0.5 μM,0.320 µM and 0.323 µM and 0.317 µM
same,Metaxalone Present Adjusted Mean ± SD,CYP3A4; metaxalone 0.5 μM,0.320 ± 0.00333 µM
same,Metaxalone Present Raw,CYP3A4; metaxalone 0.5 μM,0.1598 µM and 0.1616 µM and 0.1583 µM
same,Percent of Metabolic Negative Control Individual,CYP3A4; metaxalone 0.5 μM,101% and 102% and 99.6%
same,Percent of Metabolic Negative Control Mean ± SD,CYP3A4; metaxalone 0.5 μM,101 ± 1.05%
same,Metaxalone Present Adjusted Individual,CYP3A4; metaxalone 2.5 μM,1.71 µM and 1.66 µM and 1.67 µM
same,Metaxalone Present Adjusted Mean ± SD,CYP3A4; metaxalone 2.5 μM,1.68 ± 0.0289 µM
same,Metaxalone Present Raw,CYP3A4; metaxalone 2.5 μM,0.8573 µM and 0.8292 µM and 0.8374 µM
same,Percent of Metabolic Negative Control Individual,CYP3A4; metaxalone 2.5 μM,99.8% and 96.5% and 97.5%
same,Percent of Metabolic Negative Control Mean ± SD,CYP3A4; metaxalone 2.5 μM,98.0 ± 1.68%
same,Percent of Metabolic Negative Control Individual,CYP3A4; metaxalone 25 μM,98.1% and 97.1% and 99.3%
same,Percent of Metabolic Negative Control Mean ± SD,CYP3A4; metaxalone 25 μM,98.1 ± 1.10%
same,% Turnover Mean,CYP2E1,−3.87%
same,mean disappearance of metaxalone,CYP2C19; 0.5 μM metaxalone,6.6%
same,Metaxalone Present Adjusted Individual,CYP2C19; metaxalone 0.5 μM,0.335 µM and 0.344 µM and 0.356 µM
same,Metaxalone Present Adjusted Mean ± SD,CYP2C19; metaxalone 0.5 μM,0.345 ± 0.0104 µM
same,Metaxalone Present Raw,CYP2C19; metaxalone 0.5 μM,0.1677 µM and 0.1718 µM and 0.1781 µM
same,Percent of Metabolic Negative Control Individual,CYP2C19; metaxalone 0.5 μM,90.8% and 93.0% and 96.4%
same,Percent of Metabolic Negative Control Mean ± SD,CYP2C19; metaxalone 0.5 μM,93.4 ± 2.82%
same,Metaxalone Present Adjusted Individual,CYP2C19; metaxalone 2.5 μM,1.34 μM (2×) and 1.35 μM
same,Metaxalone Present Adjusted Mean ± SD,CYP2C19; metaxalone 2.5 μM,1.34 ± 0.00561 µM
same,Metaxalone Present Raw,CYP2C19; metaxalone 2.5 μM,0.6722 µM and 0.6725 µM and 0.6675 µM
same,Percent of Metabolic Negative Control Individual,CYP2C19; metaxalone 2.5 μM,96.7% (2×) and 96.0%
same,Percent of Metabolic Negative Control Mean ± SD,CYP2C19; metaxalone 2.5 μM,96.5 ± 0.404%
same,Metaxalone Present Adjusted Individual,CYP2C19; metaxalone 25 μM,18.7 μM (2×) and 18.5 μM
same,Metaxalone Present Adjusted Mean ± SD,CYP2C19; metaxalone 25 μM,18.6 ± 0.120 µM
same,Metaxalone Present Raw,CYP2C19; metaxalone 25 μM,9.345 µM and 9.359 µM and 9.249 µM
same,Percent of Metabolic Negative Control Individual,CYP2C19; metaxalone 25 μM,92.9% and 93.0% and 91.9%
same,Percent of Metabolic Negative Control Mean ± SD,CYP2C19; metaxalone 25 μM,92.6 ± 0.597%
same,Metaxalone Present Adjusted Individual,CYP2C9 [3]; metaxalone 0.5 μM,0.360 µM and 0.348 µM
same,Metaxalone Present Adjusted Mean ± SD,CYP2C9 [3]; metaxalone 0.5 μM,0.355 ± 0.00608 µM
same,Metaxalone Present Raw,CYP2C9 [3]; metaxalone 0.5 μM,0.18 µM and 0.1778 µM and 0.174 µM
same,Percent of Metabolic Negative Control Individual,CYP2C9 [3]; metaxalone 0.5 μM,103% and 102%
same,Percent of Metabolic Negative Control Mean ± SD,CYP2C9 [3]; metaxalone 0.5 μM,102 ± 1.75%
same,Metaxalone Present Adjusted Individual,CYP2C9 [3]; metaxalone 2.5 μM,1.94 µM and 1.93 µM and 1.89 µM
same,Metaxalone Present Adjusted Mean ± SD,CYP2C9 [3]; metaxalone 2.5 μM,1.92 ± 0.0246 µM
same,Metaxalone Present Raw,CYP2C9 [3]; metaxalone 2.5 μM,0.9684 µM and 0.9659 µM and 0.946 µM
same,Percent of Metabolic Negative Control Individual,CYP2C9 [3]; metaxalone 2.5 μM,101% and 100%
same,Percent of Metabolic Negative Control Mean ± SD,CYP2C9 [3]; metaxalone 2.5 μM,99.7 ± 1.28%
same,Metaxalone Present Adjusted Individual,CYP2C9 [3]; metaxalone 25 μM,21.3 µM and 21.6 µM and 21.5 µM
same,Metaxalone Present Adjusted Mean ± SD,CYP2C9 [3]; metaxalone 25 μM,21.5 ± 0.144 µM
same,Metaxalone Present Raw,CYP2C9 [3]; metaxalone 25 μM,10.66 µM and 10.8 µM and 10.73 µM
same,Percent of Metabolic Negative Control Individual,CYP2C9 [3]; metaxalone 25 μM,100% and 102% and 101%
same,Percent of Metabolic Negative Control Mean ± SD,CYP2C9 [3]; metaxalone 25 μM,101 ± 0.675%
